Source: the kinase profiling compilation of Christmann-Franck et al. (2016)

What was measured:
Test in all cases: radiometric filter-binding kinase assay, Kinase HotSpot
Conditions in all cases: compound 0.5 µM; ATP 10 µM
ADRBK2 (human) = ADRBK2 (human) (UniProt P35626)
CAMK1G (human) = CAMK1G (human) (UniProt Q96NX5)
CAMK2D (human) = CAMK2D (human) (UniProt Q13557)
CAMK2G (human) = CAMK2G (human) (UniProt Q13555)
CDC42BPA (human) = CDC42BPA (human) (UniProt Q5VT25)
CSNK1G3 (human) = CSNK1G3 (human) (UniProt Q9Y6M4)
DYRK2 (human) = DYRK2 (human) (UniProt Q92630)
EPHA2 (human) = EPHA2 (human) (UniProt P29317)
EPHA3 (human) = EPHA3 (human) (UniProt P29320)
EPHB1 (human) = EPHB1 (human) (UniProt P54762)
FGFR2 (human) = FGFR2 (human) (UniProt P21802)
GRK5 (human) = GRK5 (human) (UniProt P34947)
HIPK3 (human) = HIPK3 (human) (UniProt Q9H422)
IRAK1 (human) = IRAK1 (human) (UniProt P51617)
IRAK4 (human) = IRAK4 (human) (UniProt Q9NWZ3)
MAPK11 (human) = MAPK11 (human) (UniProt Q15759)
MARK2 (human) = MARK2 (human) (UniProt Q7KZI7)
MELK (human) = MELK (human) (UniProt Q14680)
MLTK (human) = MLTK (human) (UniProt Q9NYL2)
MUSK (human) = MUSK (human) (UniProt O15146)
NEK2 (human) = NEK2 (human) (UniProt P51955)
NEK3 (human) = NEK3 (human) (UniProt P51956)
NEK9 (human) = NEK9 (human) (UniProt Q8TD19)
NUAK1 (human) = NUAK1 (human) (UniProt O60285)
NUAK2 (human) = NUAK2 (human) (UniProt Q9H093)
PAK4 (human) = PAK4 (human) (UniProt O96013)
PAK7 (human) = PAK7 (human) (UniProt Q9P286)
PASK (human) = PASK (human) (UniProt Q96RG2)
PDGFRA (human) = PDGFRA (human) (UniProt P16234)
PNCK (human) = PNCK (human) (UniProt Q6P2M8)
PRKD2 (human) = PRKD2 (human) (UniProt Q9BZL6)
ROCK2 (human) = ROCK2 (human) (UniProt O75116)
ROS1 (human) = ROS1 (human) (UniProt P08922)
RPS6KA1 KD1 KD2 (human) = RPS6KA1 KD1 KD2 (human) (UniProt Q15418)
RPS6KA3 KD1 KD2 (human) = RPS6KA3 KD1 KD2 (human) (UniProt P51812)
RPS6KA6 KD1 KD2 (human) = RPS6KA6 KD1 KD2 (human) (UniProt Q9UK32)
SRMS (human) = SRMS (human) (UniProt Q9H3Y6)
STK17A (human) = STK17A (human) (UniProt Q9UEE5)
STK39 (human) = STK39 (human) (UniProt Q9UEW8)
TAOK3 (human) = TAOK3 (human) (UniProt Q9H2K8)
VRK1 (human) = VRK1 (human) (UniProt Q99986)
ZAP70 (human) = ZAP70 (human) (UniProt P43403)
Sequence of ZAP70 (human) (P43403 whole entry, looked up): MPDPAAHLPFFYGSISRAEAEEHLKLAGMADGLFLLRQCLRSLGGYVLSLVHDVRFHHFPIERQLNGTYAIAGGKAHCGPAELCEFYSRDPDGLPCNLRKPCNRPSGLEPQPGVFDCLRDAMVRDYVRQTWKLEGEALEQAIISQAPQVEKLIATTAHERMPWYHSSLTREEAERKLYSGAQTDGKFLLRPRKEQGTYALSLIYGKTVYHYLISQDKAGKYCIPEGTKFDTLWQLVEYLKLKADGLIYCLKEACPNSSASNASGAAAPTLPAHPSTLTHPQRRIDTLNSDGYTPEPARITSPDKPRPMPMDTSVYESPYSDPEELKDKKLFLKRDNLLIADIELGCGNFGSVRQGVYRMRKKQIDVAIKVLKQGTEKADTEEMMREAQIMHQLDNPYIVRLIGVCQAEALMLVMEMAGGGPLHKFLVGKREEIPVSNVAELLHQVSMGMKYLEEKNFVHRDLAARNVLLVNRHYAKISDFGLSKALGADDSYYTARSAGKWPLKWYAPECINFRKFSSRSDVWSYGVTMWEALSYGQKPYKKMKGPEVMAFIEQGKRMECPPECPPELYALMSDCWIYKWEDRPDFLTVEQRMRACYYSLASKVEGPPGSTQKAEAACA

Sequence of RPS6KA6 KD1 KD2 (human) (Q9UK32 whole entry, looked up): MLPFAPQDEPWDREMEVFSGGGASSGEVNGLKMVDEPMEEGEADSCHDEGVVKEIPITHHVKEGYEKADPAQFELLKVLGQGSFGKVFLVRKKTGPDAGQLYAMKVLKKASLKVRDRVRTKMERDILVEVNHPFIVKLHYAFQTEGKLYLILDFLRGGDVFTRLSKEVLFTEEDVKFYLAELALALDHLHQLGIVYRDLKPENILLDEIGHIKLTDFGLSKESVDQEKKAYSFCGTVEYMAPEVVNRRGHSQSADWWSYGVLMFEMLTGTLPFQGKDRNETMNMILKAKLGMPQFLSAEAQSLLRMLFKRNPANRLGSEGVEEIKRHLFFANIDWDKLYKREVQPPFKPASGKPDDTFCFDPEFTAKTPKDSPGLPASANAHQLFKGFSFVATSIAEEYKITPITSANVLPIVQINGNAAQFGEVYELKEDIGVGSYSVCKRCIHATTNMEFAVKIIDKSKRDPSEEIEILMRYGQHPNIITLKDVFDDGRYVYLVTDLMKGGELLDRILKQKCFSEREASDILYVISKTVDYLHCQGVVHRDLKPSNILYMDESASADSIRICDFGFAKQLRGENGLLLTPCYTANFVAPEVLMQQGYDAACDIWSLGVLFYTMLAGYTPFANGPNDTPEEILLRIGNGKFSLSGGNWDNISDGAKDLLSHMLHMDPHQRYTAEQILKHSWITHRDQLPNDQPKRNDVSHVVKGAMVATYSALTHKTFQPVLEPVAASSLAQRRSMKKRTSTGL
Sequence of CAMK2D (human) (Q13557 whole entry, looked up): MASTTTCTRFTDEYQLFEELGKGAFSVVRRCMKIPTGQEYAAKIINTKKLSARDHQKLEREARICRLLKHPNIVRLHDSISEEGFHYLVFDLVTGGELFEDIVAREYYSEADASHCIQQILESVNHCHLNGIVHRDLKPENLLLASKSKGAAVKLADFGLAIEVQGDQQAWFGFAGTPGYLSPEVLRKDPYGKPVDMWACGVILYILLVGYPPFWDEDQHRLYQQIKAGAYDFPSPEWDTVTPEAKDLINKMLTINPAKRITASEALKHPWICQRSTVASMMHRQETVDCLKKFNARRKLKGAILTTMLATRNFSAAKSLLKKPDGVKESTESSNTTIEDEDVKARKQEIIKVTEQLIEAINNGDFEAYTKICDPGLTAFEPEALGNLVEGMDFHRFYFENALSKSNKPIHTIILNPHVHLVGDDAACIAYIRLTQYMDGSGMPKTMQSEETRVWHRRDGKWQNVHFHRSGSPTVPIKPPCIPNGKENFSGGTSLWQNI
Sequence of CAMK1G (human) (Q96NX5 whole entry, looked up): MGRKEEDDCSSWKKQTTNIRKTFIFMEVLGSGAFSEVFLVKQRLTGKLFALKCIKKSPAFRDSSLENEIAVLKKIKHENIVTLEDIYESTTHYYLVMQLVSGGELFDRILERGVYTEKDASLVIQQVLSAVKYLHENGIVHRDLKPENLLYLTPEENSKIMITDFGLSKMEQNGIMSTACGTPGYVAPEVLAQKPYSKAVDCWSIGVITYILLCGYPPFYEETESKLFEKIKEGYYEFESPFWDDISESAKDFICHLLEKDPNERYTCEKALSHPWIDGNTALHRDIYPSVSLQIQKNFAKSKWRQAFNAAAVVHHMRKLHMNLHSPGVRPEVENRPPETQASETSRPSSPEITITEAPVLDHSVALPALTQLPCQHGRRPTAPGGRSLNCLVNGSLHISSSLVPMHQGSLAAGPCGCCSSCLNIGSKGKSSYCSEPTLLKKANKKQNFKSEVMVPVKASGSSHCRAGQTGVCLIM
Sequence of PAK7 (human) (Q9P286 whole entry, looked up): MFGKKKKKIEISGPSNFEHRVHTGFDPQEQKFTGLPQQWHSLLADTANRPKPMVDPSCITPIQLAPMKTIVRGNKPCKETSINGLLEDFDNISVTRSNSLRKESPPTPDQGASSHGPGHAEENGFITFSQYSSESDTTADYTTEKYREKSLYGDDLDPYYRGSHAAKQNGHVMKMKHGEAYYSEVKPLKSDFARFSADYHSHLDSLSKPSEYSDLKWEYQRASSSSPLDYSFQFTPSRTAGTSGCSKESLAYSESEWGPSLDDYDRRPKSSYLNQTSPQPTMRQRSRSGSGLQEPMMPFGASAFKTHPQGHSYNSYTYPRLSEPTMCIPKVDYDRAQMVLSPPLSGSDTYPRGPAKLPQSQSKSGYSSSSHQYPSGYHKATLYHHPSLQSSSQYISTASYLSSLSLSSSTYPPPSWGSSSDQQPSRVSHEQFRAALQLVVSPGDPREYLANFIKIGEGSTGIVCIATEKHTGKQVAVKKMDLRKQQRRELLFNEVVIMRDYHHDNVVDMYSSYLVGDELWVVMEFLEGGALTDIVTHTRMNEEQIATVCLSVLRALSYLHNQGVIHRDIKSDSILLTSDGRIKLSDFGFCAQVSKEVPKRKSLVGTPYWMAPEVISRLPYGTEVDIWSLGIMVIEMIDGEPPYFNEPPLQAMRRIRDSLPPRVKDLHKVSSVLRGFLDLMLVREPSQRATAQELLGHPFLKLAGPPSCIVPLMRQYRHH
Sequence of PDGFRA (human) (P16234 whole entry, looked up): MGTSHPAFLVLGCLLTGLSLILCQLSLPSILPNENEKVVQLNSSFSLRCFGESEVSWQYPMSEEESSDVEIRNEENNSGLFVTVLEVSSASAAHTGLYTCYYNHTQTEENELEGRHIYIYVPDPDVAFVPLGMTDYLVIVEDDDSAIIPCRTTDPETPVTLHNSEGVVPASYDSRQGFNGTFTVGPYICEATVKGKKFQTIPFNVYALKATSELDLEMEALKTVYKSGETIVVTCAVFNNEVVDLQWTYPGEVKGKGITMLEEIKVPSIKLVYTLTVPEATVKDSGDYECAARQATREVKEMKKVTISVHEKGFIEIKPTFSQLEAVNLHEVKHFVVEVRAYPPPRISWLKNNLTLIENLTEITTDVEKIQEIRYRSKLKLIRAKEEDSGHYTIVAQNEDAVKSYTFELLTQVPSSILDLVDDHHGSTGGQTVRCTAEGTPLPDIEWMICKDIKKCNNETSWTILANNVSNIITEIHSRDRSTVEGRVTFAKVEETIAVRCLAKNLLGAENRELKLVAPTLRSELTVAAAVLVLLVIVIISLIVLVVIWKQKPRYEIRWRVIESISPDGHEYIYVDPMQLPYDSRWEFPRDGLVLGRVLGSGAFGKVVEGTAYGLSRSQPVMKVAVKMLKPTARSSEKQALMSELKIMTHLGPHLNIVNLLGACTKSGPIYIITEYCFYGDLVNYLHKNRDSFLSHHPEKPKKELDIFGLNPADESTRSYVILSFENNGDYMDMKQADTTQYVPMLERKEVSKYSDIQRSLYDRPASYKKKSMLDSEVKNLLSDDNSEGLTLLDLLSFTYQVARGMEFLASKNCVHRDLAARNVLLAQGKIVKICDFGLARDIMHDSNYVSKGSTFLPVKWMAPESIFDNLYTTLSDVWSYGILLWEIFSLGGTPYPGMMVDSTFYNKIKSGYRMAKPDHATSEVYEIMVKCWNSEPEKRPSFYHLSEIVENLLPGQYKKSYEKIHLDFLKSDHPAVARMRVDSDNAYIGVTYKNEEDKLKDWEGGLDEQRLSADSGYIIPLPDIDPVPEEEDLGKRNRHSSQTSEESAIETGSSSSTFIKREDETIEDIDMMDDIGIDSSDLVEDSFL
Sequence of NUAK2 (human) (Q9H093 whole entry, looked up): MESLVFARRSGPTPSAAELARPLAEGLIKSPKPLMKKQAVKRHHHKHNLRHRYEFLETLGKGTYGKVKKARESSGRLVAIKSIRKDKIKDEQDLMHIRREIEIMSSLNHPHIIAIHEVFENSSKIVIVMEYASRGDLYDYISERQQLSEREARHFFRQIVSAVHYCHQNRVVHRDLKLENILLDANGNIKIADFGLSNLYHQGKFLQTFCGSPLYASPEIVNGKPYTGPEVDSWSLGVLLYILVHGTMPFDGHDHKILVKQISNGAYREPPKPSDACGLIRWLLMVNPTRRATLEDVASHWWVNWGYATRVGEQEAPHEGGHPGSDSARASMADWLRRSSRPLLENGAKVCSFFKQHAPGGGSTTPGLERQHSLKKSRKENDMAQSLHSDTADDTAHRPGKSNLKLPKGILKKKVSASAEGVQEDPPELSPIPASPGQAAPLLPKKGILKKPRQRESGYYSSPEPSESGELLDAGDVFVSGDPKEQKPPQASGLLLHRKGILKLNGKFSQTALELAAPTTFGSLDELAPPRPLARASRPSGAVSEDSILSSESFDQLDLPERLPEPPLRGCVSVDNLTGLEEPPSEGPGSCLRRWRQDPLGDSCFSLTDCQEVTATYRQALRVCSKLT

## N#CCCc1ccc2c(c1)-c1[nH]c3ccc([N+](=O)[O-])cc3c1CC(=O)N2
ADRBK2 (human)
  residual activity: 97.1%
CAMK1G (human)
  residual activity: 103%
CAMK2D (human)
  residual activity: 57.8%
CAMK2G (human)
  residual activity: 66%
CDC42BPA (human)
  residual activity: 73.1%
CSNK1G3 (human)
  residual activity: 89.7%
DYRK2 (human)
  residual activity: 46.8%
EPHA2 (human)
  residual activity: 93.6%
EPHA3 (human)
  residual activity: 93.9%
EPHB1 (human)
  residual activity: 99.1%
FGFR2 (human)
  residual activity: 93.2%
GRK5 (human)
  residual activity: 103%
HIPK3 (human)
  residual activity: 104%
IRAK1 (human)
  residual activity: 74.9%
IRAK4 (human)
  residual activity: 155%
MAPK11 (human)
  residual activity: 101%
MARK2 (human)
  residual activity: 65.5%
MELK (human)
  residual activity: 88.6%
MLTK (human)
  residual activity: 88.6%
MUSK (human)
  residual activity: 63%
NEK2 (human)
  residual activity: 92.7%
NEK3 (human)
  residual activity: 104%
NEK9 (human)
  residual activity: 103%
NUAK1 (human)
  residual activity: 14.1%
NUAK2 (human)
  residual activity: 67.6%
PAK4 (human)
  residual activity: 86.4%
PAK7 (human)
  residual activity: 60.3%
PASK (human)
  residual activity: 96.9%
PDGFRA (human)
  residual activity: 87.4%
PNCK (human)
  residual activity: 107%
PRKD2 (human)
  residual activity: 94.2%
ROCK2 (human)
  residual activity: 28.6%
ROS1 (human)
  residual activity: 71%
RPS6KA1 KD1 KD2 (human)
  residual activity: 59.9%
RPS6KA3 KD1 KD2 (human)
  residual activity: 28.6%
RPS6KA6 KD1 KD2 (human)
  residual activity: 13.4%
SRMS (human)
  residual activity: 78.6%
STK17A (human)
  residual activity: 46.8%
STK39 (human)
  residual activity: 96.4%
TAOK3 (human)
  residual activity: 66%
VRK1 (human)
  residual activity: 97.5%
ZAP70 (human)
  residual activity: 106%
